US20210223229A1, “IMMUNE FUNCTION INSPECTION METHOD, CANCER PATIENT CATEGORIZATION METHOD, CANCER TREATMENT EFFICACY PREDICTION METHOD, AGENT FOR INCREASING INTRACELLULAR CALCIUM ION CONCENTRATION, AGENT FOR INCREASING SELECTIVE FUNCTION OF EFFECTOR MEMORY (EM) AND EFFECTOR (EFF) IN TUMOR TISSUE, AND METHOD FOR …” (NATIONAL UNIVERSITY CORPORATION OKAYAMA UNIVERSITY, priority 2016, published 2021)
Entries after “also recorded” stand apart in the source; their conditions may differ.

Key:
[1] = system: mouse CD8T cells; assay: Detection of intracellular calcium ion in mouse tumor-infiltrating and lymph node lymphocytes after metformin administration; format: in vivo, C57BL/6 mice; conditions: 5 mg/mL metformin free-water-drinking for 7 days
Protocol: 2×10^5 MO-5 (OVA-expressing B16 melanoma cell strain) was intradermally inoculated to C57BL/6 mice; 7 days after the transplantation, free-water-drinking oral administration of 5 mg/mL metformin was started. Seven days after the administration (14 days after the transplantation), the lymph node (LN) and the tumor tissue (Tumor) were excised, and the tumor-infiltrating lymphocytes and lymphocytes of the lymph node were collected. After the cells were washed with FCS(−)RPMI, the cells were stained using antimouse CD3 antibody BV510, antimouse CD8 antibody APC-Cy7, 1 Fluo4, and 1 Fura Red for 30 minutes at 37° C. After the staining, the cells were washed with FCS(−)RPMI warmed at 37° C., followed by measurement of the background of intracellular calcium ions by a flow cytometer for 30 seconds. After the background measurement, the cells were immediately stimulated by 100 ng/ml PMA and 5 ionomycin, and the increase in calcium ions in the mouse CD8T cells by stimulation was measured (FIG. 1).

[2] = system: tumor-infiltrating CD8T cells; assay: Memory phenotype of antigen-specific tumor-infiltrating CD8T cells and glucose (2-NBDG) uptake in each cell fraction; format: in vivo, C57BL/6 mice
Protocol: 2×10^5 MO-5 was intradermally inoculated to C57BL/6 mice; 7 days after the transplantation, free-water-drinking oral administration of 5 mg/mL metformin was started. Seven days after the administration (14 days after the transplantation), the tumor tissue was excised, and tumor-infiltrating lymphocytes were separated. After the separation, the lymphocytes were washed with 0.1% BSA/PBS, and staining was performed with antimouse CD8 antibody APC-Cy7, antimouse CD62L antibody BV421, antimouse CD44 antibody PerCP, antimouse KLRG1 antibody APC, and 400 μM 2-NBDG (2-[N-(7-nitrobenz-2-oxa-1,3-diazol-4-yl) amino]-2-deoxy-d-glucose) for 30 minutes at 4° C. After washing with 0.1% BSA/PBS, frequency and memory phenotype (CD44, CD62L, KLRG1) of antigen-specific tumor-infiltrating CD8T cells, and deoxyglucose (2-NBDG) uptake in each cell fraction were analyzed using a flow cytometer (FIG. 2).

[3] = system: peripheral blood CD8T cells of cancer patients; assay: Multifunctionality of human CD8T cells under a low glucose condition (intracellular cytokine staining, FACS); format: cell-based; conditions: for number of CD8T cells producing three cytokines (IL-2, TNFα, IFNγ): 10 μM metformin 6 hours pre-culture, PMA/ionomycin stimulation
Protocol: FIG. 4: Analysis of multifunctionality of human CD8T-cells under a low glucose condition. Peripheral blood lymphocytes (PBMC) w/o 10 μM metformin were cultured for 6 hours. Subsequently, after washing, the cells were cultured for 12 hours at each glucose concentration. At the final 6 hours, the cells were cultured with PMA stimulation. After the culture, intracellular cytokine was stained with an antibody, followed by FACS analysis. It was confirmed that the multifunctionality of peripheral blood CD8T cells of cancer patients were recovered by being treated with metformin in advance, even in a low glucose environment, i.e., 1.0 mM.
Cryopreserved human PBMC obtained from cancer patients were thawed and cultured for 6 hours in the presence of FCS(−)RPMI 10 μM metformin. After the culture, the cells were separated and washed with FCS(−)Glc(−)RPMI. After the washing, the cells were subjected to stimulating culture for 6 hours by 50 ng/mL PMA and 2 ionomycin using RPMI containing 0.1, 1, 10 mM Glc in the presence of 1 monensin. The cells were separated and the cell-surface molecules were stained with antihuman CD8 antibody APC-Cy7, followed by a cell permeabilization treatment. The intracellular cytokines were stained with antihuman IL-2 antibody APC and antihuman TNFα antibody BV510, and […] IFNγ antibody FITC, followed by analysis using a flow cytometer (FIG. 4).

[4] = system: glucose transporter (Glut1) in tumor-infiltrating CD8T cells; assay: Glucose transporter (Glut1) expression in tumor-infiltrating CD8T cells, MethA tumor; format: in vivo, BALB/c; conditions: metformin 5 mg/mL free-water-drinking from Day 7; Day 10 and Day 13; with and without PMA stimulation
Protocol: Tumor (MethA) 2×10^6 was intradermally injected to 8-week old BALB/c, and metformin (5 mg/mL) was continuously given by free-water-drinking from Day 7. Three and 6 days after the treatment (Day 10 and Day 13), the tumor-infiltrating T cells (TIL) were separated and stained with anti-CD8 antibody, and anti-glucose transporter (Glut1) antibody. Further, after stimulating culture in the presence of PMA/Ionomycin/Monencin for 6 hours, the cells were stained with anti-CD8 antibody and anti-glucose transporter (Glut1) antibody, followed by analysis using a flow cytometer.

[5] = system: Glut1-positive tumor-infiltrating CD8T cells; assay: Multifunctionality of CD8T cells expressing Glut1, MethA tumor; format: in vivo, BALB/c
Protocol: Tumor (MethA) 2×10^6 was intradermally injected to 8-week old BALB/c, and metformin (5 mg/mL) was continuously given by free-water-drinking from Day 7. Three and 6 days after the treatment (Day 10 and Day 13), the tumor-infiltrating T cells (TIL) were separated. After stimulating culture in the presence of PMA/Ionomycin/Monencin for 6 hours, the cells were stained with anti-CD8 antibody, anti-glucose transporter (Glut1) antibody, and intracellular cytokines (IL-2/TNFα/IFNγ), followed by analysis using a flow cytometer. […] The proportion is increased by metformin administration. These facts indicate that, by confirming the Glut1 expression level in the tumor-infiltrating CD8T cells using a flow cytometer, it is possible to assume the immune status without performing a multifunctionality test. Further, by performing immunotherapy such as metformin administration, and confirming that the Glut1 expression level was increased in the CD8T cells by the therapy, it is possible to determine that the treatment had immune effects.

[6] = system: glucose transporter (Glut1) in CD8TIL; assay: Change in Glut1 expression over time in CD8TIL, MethA tumor; format: in vivo, BALB/c; conditions: after 6-hour in-vitro culture; metformin 5 mg/mL from Day 7, 3 days of treatment
Protocol: Syngeneic tumor MethA (2×10^6) was intradermally injected to 8-week old BALB/c, and administration of metformin (5 mg/mL) and N-acetylcysteine (NAC, 10 mg/mL) was started from Day 7. Three days after the treatment, the tumor-infiltrating T cells (TIL) were separated, and cultured for 0, 1, 3 and 6 hours at 37° C. Therefore, the cells were stained with CD3, CD8, and glucose transporter (Glut1) antibodies, followed by analysis using a flow cytometer (FIG. 8).

[7] = system: glucose transporter (Glut1) in CD8TIL; assay: Glut1 expression versus changes in glucose concentration in CD8TIL, MethA tumor; format: in vivo, BALB/c mice
Protocol: Syngeneic tumor (MethA) 2×10^6 was intradermally injected to 8-week old BALB/c mice, and administration of metformin (5 mg/mL) was started from Day 7. Three days after the treatment, the tumor-infiltrating T cells (TIL) were separated. After culture in the presence of a culture solution having a glucose concentration of 0, 0.1, 1.2, 6.1, 12.5, or 25 mM at 37° C. for 0, 1, 3, 6 hours, the cells were stained with CD3, CD8, and glucose transporter (Glut1) antibodies, followed by analysis using a flow cytometer (FIG. 9).

[8] = system: human CD8T cells; assay: Calcium concentration in peripheral blood CD8T cells of cancer patients before and after metformin administration; format: in vivo; conditions: stage I, stage IIa and stage IV cancer patients; before vs after metformin
Protocol: In stage I, stage IIa, and stage IV cancer patients, changes in calcium concentration increase by PMA stimulation before and after metformin administration were measured. Human PBMC (human peripheral blood mononuclear cells) were collected before and after the metformin administration that was performed in accordance with the administration schedule shown in the figure, and subjected to stimulation with 100 ng/mL PMA and 5 ionomycin in the same manner as in Example 3, followed by measurement of calcium ion increase in human CD8T cells as a result of stimulation. Specifically, peripheral blood mononuclear cells (PBMC) were separated from peripheral blood by a gravity separation method, and 1×10^6 lymphocytes were incubated for 30 minutes at 37° C. in the presence of 1 μg/mL anti-human CD8 antibody and 1 μM Fluo4/FuraRed. The incubation was followed by washing with an AIM-V medium. After the washing, AIM-V was added and unstimulated (before stimulation) lymphocytes were collected by FACSCantoII for 20 minutes, thereby collecting baseline data. Thereafter, 100 ng/mL PMA and 2 μM ionomycin were added and stimulation was applied, followed by immediate collection by FACSCantoII, thereby obtaining data after stimulation. Consequently, waveforms according to the cytoplasmic calcium concentrations were detected.

[9] = system: OVA-expressing B16 melanoma cell strain MO5
Protocol: The four types of groups: an untreated group (C), and, 10 days after the tumor cell inoculation, sole use of aspirin, sole use of phenformin (Phen), combined use of aspirin and phenformin, each consisting of 5 mice, were prepared. Phenformin is a biguanide-based drug, like metformin. From Day 10 of the tumor cell inoculation, phenformin contained in a feed in an amount of 0.5% was given. Further, the feed was replaced by a normal feed every four days. Specifically, a phenformin-containing feed was given only on Day 10 to Day 14, and Day 18 to Day 22. A normal feed free of phenformin was given from Day 14 to Day 18, and Day 22 to Day 26. This administration method is based on the fact that there have been fatal cases by everyday administration of phenformin due to side effects.
In contrast, aspirin (600 μg/mL) was given by free water drinking, and the water drinking was continuously performed from Day 10.

[10] = 5 mg/mL metformin free-water-drinking for 7 days, MO-5 tumor

SMILES	intracellular calcium concentration by PMA/ionomycin stimulation ([1]; CD8T cells of lymph node (LN), vs non-administration group)	intracellular calcium concentration by PMA/ionomycin stimulation ([1]; CD8T cells of tumor tissue (Tumor), MO-5 tumor)	glycolysis system (2-NBDG uptake) of central memory ([2]; 5 mg/mL metformin)	glycolysis system (2-NBDG uptake) of effector (eff) and effector memory (EM) ([2]; 5 mg/mL metformin)	number and proportion of central memory [2, 10]	numbers and proportions of effector (eff) and effector memory (EM) [2, 10]	number of CD8T cells producing three cytokines (IL-2, TNFα, IFNγ) ([3]; glucose concentration 0.1 mM)	number of CD8T cells producing three cytokines (IL-2, TNFα, IFNγ) ([3]; glucose concentration 1 mM)	multifunctionality of peripheral blood CD8T cells of cancer patients ([3]; low glucose environment 1.0 mM, treated with 10 μM metformin in advance)	Glut1-positive group in tumor-infiltrating CD8T cells [4]	proportion of Glut1-positive groups with multifunctionality ([5]; metformin 5 mg/mL free-water-drinking from Day 7, PMA/Ionomycin/Monencin 6 hours)	Glut1-positive and multifunctional cell groups per tumor unit ([5]; metformin administration group)	Glut-1 expression in CD8TIL [6]	up-regulation of GLUT-1 in CD8TIL ([7]; 6-hour in-vitro culture, CD8TIL separated from metformin-administered mice)	Glut-1 expression in CD8TIL ([7]; glucose concentration 0 mM)	Glut-1 expression, proportion of CD8TIL ([7]; glucose concentration of 0.1 mM, metformin-administered mice) [%]	calcium concentration by PMA stimulation in human CD8T cells [8]	side effects of everyday administration ([9]; everyday administration of phenformin)	water drinking behaviour ([9]; mouse, in vivo)	tumor growth inhibitory effects ([9]; phenformin 0.5% in feed Day 10-14 and Day 18-22, aspirin 600 μg/mL free water drinking from Day 10)
CN(C)C(=N)N=C(N)N [metformin]	the degree of increase was greater	greatly increased	deactivates the glycolysis system	activates the glycolysis system	reduces	increased	no difference	significantly increased	recovered	conspicuous increase; also recorded: increased	increased	increased	very high level	significant up-regulation	does not occur	14.3	increase	–	–	–
[H]/N=C(/N)N/C(=N/[H])NCCc1ccccc1 [phenformin]	–	–	–	–	–	–	–	–	–	–	–	–	–	–	–	–	–	fatal cases	the mice stopped drinking water	strong tumor growth inhibitory effects
